The results in this text go back to patent publication US7611853B2, “Assay to screen for anti-malarials” (priority 2002, dated 2009).

Test [1] relates to Plasmodium falciparum ring-infected erythrocytes. The experiment in a line: Anti-malarial effect of GA and HA on overall parasitemia (giemsa staining). Format: cell-based. As for the experimental part:
To show the effects of GA on overall parasitemia, ring-infected erythrocytes were either treated with DMSO or with 5 μM GA for 48 hrs (culture was replenished with medium and GA every 24 hrs) and parasitemia was calculated by giemsa staining. While the mock-treated parasites multiplied at the end of 48 hrs, parasitemia was reduced to 50 percent in GA treated cultures by 48 hrs.

A further test concerns Plasmodium falciparum. The experiment in a line: Growth inhibitory effect of GA on synchronous parasites (Giemsa-stained smears). Type of test: cell-based. An excerpt:
In order to check if GA could inhibit Plasmodium falciparum growth in vitro, we prepared highly synchronous ring-infected parasites using 5% sorbitol. These ring-staged parasites were suspended in RPMI to make 5% hematocrit. […] This correlates with elevated expression of Pfhsp90 in the trophozoite stage compared to ring stage.

Molecules are shown by their SMILES.

As to `CO[C@H]1[C@@H](OC)C[C@H](C)[C@@H](OC)C2=CC(=O)C=C(NC(=O)/C(C)=C/C=C\[C@H](OC)[C@@H](OC(N)=O)/C(C)=C/[C@@H]1C)C2=O` [HA, Herbimycin A], the “anti-malarial effect (summary statement)” value in test [1] was “kill the malarial parasite at the stage of early trophozoite development”. The “concentration of maximal reduction in parasitemia” value in test [1] (0.5, 1, 5 and 10 μM tested, 48 hrs) is 10 µM.

What is called inhibition is the change of the read-out against control, counted positive when it falls. Higher therefore signals strong suppression. Compound `COC1=C2C[C@@H](C)C[C@H](OC)[C@H](O)[C@@H](C)/C=C(\C)[C@H](OC(N)=O)[C@@H](OC)/C=C\C=C(/C)C(=O)NC(=CC1=O)C2=O` [GA, Geldanamycin] yielded an inhibition at 10 µM in the test on Plasmodium falciparum (Plasmodium falciparum, GA added in the trophozoite stage, 10 μM) of 100%. Also, the “concentration of maximal growth inhibition” value in the test with Plasmodium falciparum (ring-staged parasites, 24 h) was 5 µM. Besides, the “parasitemia reduced to” value in test [1] (ring-infected erythrocytes, 5 μM, 48 hrs, replenished every 24 hrs) is recorded as 50%.
